Reference: patent publication US20260191829A1, “Compositions and Methods of Treating Neurological Conditions” (DRI Biosciences Corporation, priority 2022, published 2026)
“Also recorded” adds a separate entry of the source.

What was measured:
Fmr1 KO mice [1] = assay: Metabolic activities (glucose and lipid) of Fmr1 KO mice; format: in vivo, mouse; conditions: Fmr1 KO mice vs FVB mice; FIG. 4C
From the text: The altered metabolic activities indicated sympathetic dysregulation (i.e., catecholaminergic disequilibrium). Dopaminergic activity modulates sympathetic activation.
(§1) The study compared learning and memory behaviors of the different drug treated and untreated (vehicle) Fmr1 KO mice with FVB mice (a background strain of the transgenic Fmr1 KO mice; “FVB” refers to the susceptibility of FVB mice to Friend leukemia virus B). Male mice (FVB.129P2-Pde6b<+> Tyr<c-ch>Fmr1<tm1Cgr>/J (Stock No: 004624 |FMR1 KO)) were used as the FXS/autism model and age-matched male mice (FVB.129P2-Pde6b<+> Tyr<c-ch>/AntJ) were used as the controls (Bernardet, M. and W. E. Crusio, Fmr1 KO mice as a possible model of autistic features. Scientific WorldJournal, 2006. 6: p. 1164-76. Hays, S. A., K. M. Huber, and J. R. Gibson, Altered neocortical rhythmic activity states in Fmr1 KO mice are due to enhanced mGluR5 signaling and involve changes in excitatory circuitry. J Neurosci, 2011. 31(40): p. 14223-34. Willemsen, R. and R. F. Kooy, Mouse models of fragile X-related disorders. Dis Model Mech, 2023. 16(2).).
Such alterations indicated an excessive sympathetic activation.

Fmr1 KO mice [2] = assay: Novel object recognition test (learning and memory) in Fmr1 KO mice; format: in vivo, mouse; conditions: Fmr1 KO mice vs vehicle and FVB mice, daily oral treatment from P21, ACT01 25 mg/kg, FIG. 4D
From the text: as §1
Unexpected drug-combination effects on rodent learning and memory: Novel object recognition test was used to assess treatment effects of different catecholaminergic mediations (including drug combinations) on cognitive behavior, i.e., learning and memory. […]

Substance: 3-(phenylpropyl)-sydnonimine-N-phenylcarbamoyl [ACT01]
- glucose and lipid metabolisms (metabolic activities) (Fmr1 KO mice [1]): normalized the glucose and lipid metabolisms; also recorded: normalized the metabolic activities
- learning and memory ability (NOR index = novel object recognition index) (Fmr1 KO mice [2]): significantly (p<0.05) improved; also recorded: positively enhance
